# Columns and labels:
# Assay type in all cases: cell membranes
# Mu-type opioid receptor = Mu-type opioid receptor (Homo sapiens, UniProt P35372); experiment: Displacement of [3H]-DAMGO from human MOR extracted from HEK293 cell membrane assessed as inhibition constant
# [1] = target: Delta-type opioid receptor (Homo sapiens, UniProt P41143); experiment: Displacement of [3H]DPDPE from human DOR extracted from HEK293 cell membrane assessed as inhibition constant
# [2] = target: Kappa-type opioid receptor (Homo sapiens, UniProt P41145); experiment: Displacement of [3H]U-69593 from human KOR extracted from HEK293 cell membrane assessed as inhibition constant
# Kappa-type opioid receptor, sequence (P41145 whole entry): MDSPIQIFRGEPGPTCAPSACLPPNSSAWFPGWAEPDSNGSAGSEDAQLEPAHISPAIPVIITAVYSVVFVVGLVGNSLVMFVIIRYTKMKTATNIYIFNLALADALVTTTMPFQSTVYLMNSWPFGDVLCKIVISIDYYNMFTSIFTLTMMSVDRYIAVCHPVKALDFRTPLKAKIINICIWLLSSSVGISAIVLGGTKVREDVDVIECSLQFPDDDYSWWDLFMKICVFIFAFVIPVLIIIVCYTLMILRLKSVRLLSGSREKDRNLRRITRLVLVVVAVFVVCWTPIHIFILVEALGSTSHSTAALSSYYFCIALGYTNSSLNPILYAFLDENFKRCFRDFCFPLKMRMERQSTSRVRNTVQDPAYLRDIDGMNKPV
# Mu-type opioid receptor, sequence (P35372 whole entry): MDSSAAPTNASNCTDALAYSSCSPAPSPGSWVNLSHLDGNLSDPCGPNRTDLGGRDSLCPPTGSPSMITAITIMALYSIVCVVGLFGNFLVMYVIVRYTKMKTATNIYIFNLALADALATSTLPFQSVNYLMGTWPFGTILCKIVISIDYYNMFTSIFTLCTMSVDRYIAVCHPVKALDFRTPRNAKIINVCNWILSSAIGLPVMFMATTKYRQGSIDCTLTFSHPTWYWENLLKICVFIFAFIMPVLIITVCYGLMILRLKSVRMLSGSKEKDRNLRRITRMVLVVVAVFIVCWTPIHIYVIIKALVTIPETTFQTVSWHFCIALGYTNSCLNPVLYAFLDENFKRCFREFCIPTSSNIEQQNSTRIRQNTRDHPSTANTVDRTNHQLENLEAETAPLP
# Delta-type opioid receptor, sequence (P41143 whole entry): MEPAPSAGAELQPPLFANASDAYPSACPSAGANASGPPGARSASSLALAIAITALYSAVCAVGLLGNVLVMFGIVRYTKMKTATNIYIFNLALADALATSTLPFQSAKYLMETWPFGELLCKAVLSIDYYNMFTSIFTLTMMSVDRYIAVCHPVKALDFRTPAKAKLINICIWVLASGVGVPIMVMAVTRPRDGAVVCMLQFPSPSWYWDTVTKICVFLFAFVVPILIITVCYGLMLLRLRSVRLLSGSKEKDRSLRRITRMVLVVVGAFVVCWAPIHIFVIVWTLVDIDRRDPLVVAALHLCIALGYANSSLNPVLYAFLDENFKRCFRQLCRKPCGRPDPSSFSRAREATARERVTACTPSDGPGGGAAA
Structure (SMILES),Ki (Mu-type opioid receptor),Ki [1],Ki [2]
N[C@@]12CCC(=O)C3Oc4c(O)ccc5c4[C@@]31CCN(CC1CC1)C2C5 (some centres undefined),0.82 nM,19 nM,1.8 nM
CC(=O)C(C(C)=O)=C1N(CC2CC2)C2Cc3ccc(O)c4c3[C@]35CCN1[C@]23CCC(=O)C5O4 (some centres undefined),690 nM,1300 nM,1400 nM
CC(=O)/C=C1/NC2Cc3ccc(O)c4c3[C@]35CCN1[C@]23CCC(=O)C5O4 (some centres undefined),380 nM,> 10000 nM,310 nM
CN1CN2CC[C@]34c5c6ccc(O)c5OC3C(=O)CC[C@]24C1C6 (some centres undefined),150 nM,160 nM,310 nM
O=C1CC[C@@]23C4Cc5ccc(O)c6c5[C@@]2(CCN3CN4CCc2ccccc2)C1O6 (some centres undefined),22 nM,25 nM,5.2 nM
C[C@H](O)C[C@H]1NC2Cc3ccc(O)c4c3[C@]35CCN1[C@]23CCC(=O)C5O4 (some centres undefined),57 nM,320 nM,120 nM
O=C1CC[C@]23C4[C@@H](CN(CC5CC5)C[N@@]42)[C@]32c3cccc(O)c3OC12 (some centres undefined),20 nM,64 nM,21 nM
C[C@@H](O)C[C@H]1NC2Cc3ccc(O)c4c3[C@]35CCN1[C@]23CCC(=O)C5O4 (some centres undefined),69 nM,620 nM,390 nM

# From ChEMBL document CHEMBL5584218, “Design and synthesis of unique morphinan-type molecules: Their application to the search for the unexplored binding domain between opioid receptors and morphinan ligands” (Bioorg Med Chem Lett, 2024)
